Experimental data from ChEMBL document CHEMBL1697781, “Assessment of the health effects of chemicals in humans: II. Construction of an adverse effects database for QSAR modeling” (Curr Drug Discov Technol, 2004).

Columns and labels:
Conditions in all cases: human; call rule not given here
Hepatotoxicity [1] = assay: FDA HLAED, liver enzyme composite activity
Hepatotoxicity [2] = assay: FDA HLAED, alkaline phosphatase increase
Hepatotoxicity [3] = assay: FDA HLAED, serum glutamic oxaloacetic transaminase (SGOT) increase
Hepatotoxicity [4] = assay: FDA HLAED, serum glutamic pyruvic transaminase (SGPT) increase
Hepatotoxicity [5] = assay: FDA HLAED, lactate dehydrogenase (LDH) increase
Hepatotoxicity [6] = assay: FDA HLAED, gamma-glutamyl transferase (GGT) increase
For GGT Increase - Index Value in this document: reference of the scale not given here.
For LDH Increase - Index Value in this document: reference of the scale not given here.

**Q.** What does the source list for `CCOC(=O)[C@H](CCc1ccccc1)N[C@H]1CCc2ccccc2N(CC(=O)O)C1=O` [BENAZEPRIL]?
**A.** Composite Activity - Active (Hepatotoxicity [1]): 0; Composite Activity - Marginal (Hepatotoxicity [1]): 0; Composite Activity - Score (Hepatotoxicity [1]): Inactive; Alkaline Phosphatase Increase - Activity Score (Hepatotoxicity [2]): Inactive; Alkaline Phosphatase Increase - Index Value (Hepatotoxicity [2]): 0.3; Alkaline Phosphatase Increase - Number of Reports (Hepatotoxicity [2]): < 4; SGOT Increase - Activity Score (Hepatotoxicity [3]): Inactive; SGOT Increase - Index Value (Hepatotoxicity [3]): 0; SGOT Increase - Number of Reports (Hepatotoxicity [3]): < 4; SGPT Increase - Activity Score (Hepatotoxicity [4]): Inactive; SGPT Increase - Index Value (Hepatotoxicity [4]): 0; SGPT Increase - Number of Reports (Hepatotoxicity [4]): < 4; LDH Increase - Activity Score (Hepatotoxicity [5]): Inactive; LDH Increase - Index Value (Hepatotoxicity [5]): 0.2; LDH Increase - Number of Reports (Hepatotoxicity [5]): < 4; GGT Increase - Activity Score (Hepatotoxicity [6]): Inactive; GGT Increase - Index Value (Hepatotoxicity [6]): 0.2; GGT Increase - Number of Reports (Hepatotoxicity [6]): < 4

**Q.** What does the source list for `CC(C)COCC(CN(Cc1ccccc1)c1ccccc1)N1CCCC1` (stereo not drawn) [BEPRIDIL]?
**A.** Composite Activity - Active (Hepatotoxicity [1]): 0; Composite Activity - Marginal (Hepatotoxicity [1]): 0; Composite Activity - Score (Hepatotoxicity [1]): Inactive; Alkaline Phosphatase Increase - Activity Score (Hepatotoxicity [2]): Inactive; Alkaline Phosphatase Increase - Index Value (Hepatotoxicity [2]): 0; Alkaline Phosphatase Increase - Number of Reports (Hepatotoxicity [2]): < 4; SGOT Increase - Activity Score (Hepatotoxicity [3]): Inactive; SGOT Increase - Index Value (Hepatotoxicity [3]): 0; SGOT Increase - Number of Reports (Hepatotoxicity [3]): < 4; SGPT Increase - Activity Score (Hepatotoxicity [4]): Inactive; SGPT Increase - Index Value (Hepatotoxicity [4]): 0; SGPT Increase - Number of Reports (Hepatotoxicity [4]): < 4; LDH Increase - Activity Score (Hepatotoxicity [5]): Inactive; LDH Increase - Index Value (Hepatotoxicity [5]): 27.1; LDH Increase - Number of Reports (Hepatotoxicity [5]): < 4; GGT Increase - Activity Score (Hepatotoxicity [6]): Inactive; GGT Increase - Index Value (Hepatotoxicity [6]): 0; GGT Increase - Number of Reports (Hepatotoxicity [6]): < 4

**Q.** `CC(C)NCC(O)COc1ccc(CCOCC2CC2)cc1` (stereo not drawn) [BETAXOLOL] was tested. Which “Composite Activity - Active” value (Hepatotoxicity [1]; Liver) did it give?
**A.** The value was 0.

**Q.** What about the “Composite Activity - Marginal” value (Hepatotoxicity [1]; Liver) of the same compound?
**A.** Its value is 0.

**Q.** And the “Composite Activity - Score” value (Hepatotoxicity [1]; Liver)?
**A.** Its value is “Inactive”.

**Q.** What about the “Alkaline Phosphatase Increase - Activity Score” value (Hepatotoxicity [2]) of the same compound?
**A.** The value was “Inactive”.

**Q.** What about the “Alkaline Phosphatase Increase - Index Value” (Hepatotoxicity [2]) of the same compound?
**A.** The value was 0.

**Q.** What about the “Alkaline Phosphatase Increase - Number of Reports” value (Hepatotoxicity [2]) of the same compound?
**A.** Its value is less than 4.

**Q.** What about the “SGOT Increase - Activity Score” value (Hepatotoxicity [3]) of the same compound?
**A.** Its value is “Inactive”.

**Q.** What about the “SGOT Increase - Index Value” (Hepatotoxicity [3]) of the same compound?
**A.** The value was 0.

**Q.** And the “SGOT Increase - Number of Reports” value (Hepatotoxicity [3])?
**A.** The value was less than 4.

**Q.** What about the “SGPT Increase - Activity Score” value (Hepatotoxicity [4]) of the same compound?
**A.** The value was “Inactive”.

**Q.** And the “SGPT Increase - Index Value” (Hepatotoxicity [4])?
**A.** The value was 0.

**Q.** What about the “SGPT Increase - Number of Reports” value (Hepatotoxicity [4]) of the same compound?
**A.** Its value is less than 4.

**Q.** What about the “LDH Increase - Activity Score” value (Hepatotoxicity [5]) of the same compound?
**A.** Its value is “Inactive”.

**Q.** And the “LDH Increase - Index Value” (Hepatotoxicity [5])?
**A.** Its value is 0.

**Q.** What about the “LDH Increase - Number of Reports” value (Hepatotoxicity [5]) of the same compound?
**A.** The value was less than 4.

**Q.** And the “GGT Increase - Activity Score” value (Hepatotoxicity [6])?
**A.** Its value is “Inactive”.

**Q.** And the “GGT Increase - Index Value” (Hepatotoxicity [6])?
**A.** Its value is 0.

**Q.** What about the “GGT Increase - Number of Reports” value (Hepatotoxicity [6]) of the same compound?
**A.** The value was less than 4.

**Q.** For `CC(O)(CS(=O)(=O)c1ccc(F)cc1)C(=O)Nc1ccc(C#N)c(C(F)(F)F)c1` (stereo not drawn) [BICALUTAMIDE], which “Composite Activity - Active” value (Hepatotoxicity [1]) is on record?
**A.** The value was 3.

**Q.** And the “Composite Activity - Marginal” value (Hepatotoxicity [1])?
**A.** Its value is 0.

**Q.** What about the “Composite Activity - Score” value (Hepatotoxicity [1]) of the same compound?
**A.** The value was “Active”.

**Q.** And the “Alkaline Phosphatase Increase - Activity Score” value (Hepatotoxicity [2])?
**A.** Its value is “Active”.

**Q.** What about the “Alkaline Phosphatase Increase - Index Value” (Hepatotoxicity [2]) of the same compound?
**A.** Its value is 8.5.

**Q.** And the “Alkaline Phosphatase Increase - Number of Reports” value (Hepatotoxicity [2])?
**A.** Its value is “>= 4”.

**Q.** What about the “SGOT Increase - Activity Score” value (Hepatotoxicity [3]) of the same compound?
**A.** The value was “Active”.

**Q.** What about the “SGOT Increase - Index Value” (Hepatotoxicity [3]) of the same compound?
**A.** The value was 13.6.

**Q.** And the “SGOT Increase - Number of Reports” value (Hepatotoxicity [3])?
**A.** Its value is “>= 4”.

**Q.** What about the “SGPT Increase - Activity Score” value (Hepatotoxicity [4]) of the same compound?
**A.** Its value is “Active”.

**Q.** What about the “SGPT Increase - Index Value” (Hepatotoxicity [4]) of the same compound?
**A.** The value was 11.9.

**Q.** And the “SGPT Increase - Number of Reports” value (Hepatotoxicity [4])?
**A.** Its value is “>= 4”.

**Q.** What about the “LDH Increase - Activity Score” value (Hepatotoxicity [5]) of the same compound?
**A.** The value was “Inactive”.

**Q.** And the “LDH Increase - Index Value” (Hepatotoxicity [5])?
**A.** The value was 5.1.

**Q.** What about the “LDH Increase - Number of Reports” value (Hepatotoxicity [5]) of the same compound?
**A.** Its value is less than 4.

**Q.** What about the “GGT Increase - Activity Score” value (Hepatotoxicity [6]) of the same compound?
**A.** The value was “Inactive”.

**Q.** What about the “GGT Increase - Index Value” (Hepatotoxicity [6]) of the same compound?
**A.** The value was 1.7.

**Q.** What about the “GGT Increase - Number of Reports” value (Hepatotoxicity [6]) of the same compound?
**A.** Its value is less than 4.

**Q.** Which results are given for `CC(C)NCC(O)COc1ccc(COCCOC(C)C)cc1` (stereo not drawn) [BISOPROLOL]?
**A.** Composite Activity - Active (Hepatotoxicity [1]): 1; Composite Activity - Marginal (Hepatotoxicity [1]): 0; Composite Activity - Score (Hepatotoxicity [1]): Inactive; Alkaline Phosphatase Increase - Activity Score (Hepatotoxicity [2]): Inactive; Alkaline Phosphatase Increase - Index Value (Hepatotoxicity [2]): 3.1; Alkaline Phosphatase Increase - Number of Reports (Hepatotoxicity [2]): < 4; SGOT Increase - Activity Score (Hepatotoxicity [3]): Inactive; SGOT Increase - Index Value (Hepatotoxicity [3]): 0; SGOT Increase - Number of Reports (Hepatotoxicity [3]): < 4; SGPT Increase - Activity Score (Hepatotoxicity [4]): Inactive; SGPT Increase - Index Value (Hepatotoxicity [4]): 3.1; SGPT Increase - Number of Reports (Hepatotoxicity [4]): < 4; LDH Increase - Activity Score (Hepatotoxicity [5]): Inactive; LDH Increase - Index Value (Hepatotoxicity [5]): 0; LDH Increase - Number of Reports (Hepatotoxicity [5]): < 4; GGT Increase - Activity Score (Hepatotoxicity [6]): Active; GGT Increase - Index Value (Hepatotoxicity [6]): 12.3; GGT Increase - Number of Reports (Hepatotoxicity [6]): < 4

**Q.** With `Cc1ccc(C(=O)Oc2ccc(C(O)CNC(C)(C)C)cc2OC(=O)c2ccc(C)cc2)cc1` (stereo not drawn) [BITOLTEROL] as the compound, how does the “Composite Activity - Active” value (Hepatotoxicity [1]) read?
**A.** The value was 0.

**Q.** And the “Composite Activity - Marginal” value (Hepatotoxicity [1])?
**A.** Its value is 0.

**Q.** What about the “Composite Activity - Score” value (Hepatotoxicity [1]) of the same compound?
**A.** The value was “Inactive”.

**Q.** And the “Alkaline Phosphatase Increase - Activity Score” value (Hepatotoxicity [2])?
**A.** Its value is “Inactive”.

**Q.** And the “Alkaline Phosphatase Increase - Index Value” (Hepatotoxicity [2])?
**A.** Its value is 0.

**Q.** What about the “Alkaline Phosphatase Increase - Number of Reports” value (Hepatotoxicity [2]) of the same compound?
**A.** The value was less than 4.

**Q.** And the “SGOT Increase - Activity Score” value (Hepatotoxicity [3])?
**A.** Its value is “Inactive”.

**Q.** And the “SGOT Increase - Index Value” (Hepatotoxicity [3])?
**A.** Its value is 0.

**Q.** What about the “SGOT Increase - Number of Reports” value (Hepatotoxicity [3]) of the same compound?
**A.** Its value is less than 4.

**Q.** And the “SGPT Increase - Activity Score” value (Hepatotoxicity [4])?
**A.** The value was “Inactive”.

**Q.** And the “SGPT Increase - Index Value” (Hepatotoxicity [4])?
**A.** Its value is 0.

**Q.** And the “SGPT Increase - Number of Reports” value (Hepatotoxicity [4])?
**A.** Its value is less than 4.

**Q.** What about the “LDH Increase - Activity Score” value (Hepatotoxicity [5]) of the same compound?
**A.** The value was “Inactive”.

**Q.** And the “LDH Increase - Index Value” (Hepatotoxicity [5])?
**A.** Its value is 0.

**Q.** And the “LDH Increase - Number of Reports” value (Hepatotoxicity [5])?
**A.** The value was less than 4.

**Q.** What about the “GGT Increase - Activity Score” value (Hepatotoxicity [6]) of the same compound?
**A.** Its value is “Inactive”.

**Q.** What about the “GGT Increase - Index Value” (Hepatotoxicity [6]) of the same compound?
**A.** Its value is 0.

**Q.** And the “GGT Increase - Number of Reports” value (Hepatotoxicity [6])?
**A.** Its value is less than 4.
